Test results as given in ChEMBL document CHEMBL1770113, “Improved synthesis of 15-deoxyspergualin analogs using the Ugi multi-component reaction” (Bioorg Med Chem Lett, 2011).
≈ marks a conversion by molar mass, not a printed value.

Assays:
Escherichia coli = experiment: Antibacterial activity against Escherichia coli; format: functional
Bacillus subtilis = experiment: Antibacterial activity against Bacillus subtilis; format: functional
[1] = Chemical stability of the compound in aqueous buffer assessed as half life at pH 7 by thin layer chromatography; format: physicochemical
[2] = Chemical stability of the compound in aqueous buffer assessed as half life at pH 10 by thin layer chromatography; format: physicochemical; conditions: for half-life: aqueous buffer
[3] = Chemical stability of the compound in aqueous buffer assessed as half life at pH 8 by thin layer chromatography; format: physicochemical; conditions: for half-life: aqueous buffer
[4] = Chemical stability of the compound in aqueous buffer assessed as half life at pH 5 by thin layer chromatography; format: physicochemical; conditions: for Stability: buffer; for half-life: aqueous buffer
Staphylococcus aureus = experiment: Antibacterial activity against Staphylococcus aureus; format: functional

| MIC (Escherichia coli) [µg/mL] | MIC (Bacillus subtilis) [µg/mL] | half-life [1] [h] | half-life [2] [h] | Stability ([3]; buffer) | Stability [4] | MIC (Staphylococcus aureus) [µg/mL] | half-life [3] [h] | half-life [4] [h] | Stability ([2]; buffer) | SMILES |
| --- | --- | --- | --- | --- | --- | --- | --- | --- | --- | --- |
| > 250 | 50 (≈ 95 µM) | 440 | 420 | Unstable | Unstable | 50 (≈ 95 µM) | – | – | – | N=C(N)NCCCCCCC(=O)NC(C(=O)NCCCCNCCCN)c1ccc(Br)cc1 (racemic) |
| > 250 | 10 (≈ 26.9 µM) | 100 | 3 | – | – | 10 (≈ 26.9 µM) | 260 | 90 | – | N=C(N)NCCCCCCC(=O)NCC(=O)NCCCCNCCCN |
| > 250 | 50 (≈ 105 µM) | 203 | – | – | Unstable | 50 (≈ 105 µM) | 563 | – | Unstable | N=C(N)NCCCCCCC(=O)NC(CCc1ccccc1)C(=O)NCCCCNCCCN (racemic) |
| > 250 | 50 (≈ 125 µM) | 190 | 48 | – | – | 50 (≈ 125 µM) | 720 | 140 | – | COC(NC(=O)CCCCCCNC(=N)N)C(=O)NCCCCNCCCN (racemic) |
